From paper PMC12111648, “New Dimethoxyaryl-Sesquiterpene Derivatives with Cytotoxic Activity Against MCF-7 Breast Cancer Cells: From Synthesis to Topoisomerase I/II Inhibition and Cell Death Mechanism Studies” (International Journal of Molecular Sciences, 2025) come the findings set out here.

In test [1] the test system is MCF-10 cells. The test is described as follows: MTT cytotoxicity assay on non-tumoral MCF-10 cells. The settings on record: Homo sapiens, MCF10, 48 h incubation, IC50 ± SD, three experiments in triplicate. It counts as cell-based, human. On the procedure:
(§1) In this study, we wondered whether semi-synthetic compounds have potential antitumoral properties against BC. Therefore, we were interested in investigating the effect of the compounds on the MCF-7 cell line. Firstly, we studied the effect on cell viability using a colorimetric MTT assay, which was performed to quantify the cytotoxic activity; each compound was evaluated at different concentrations (500−100−20−4−0.8−0.16−0.032−0 µM). Daunorubicin was also used as a positive control for comparison with a reference drug. […] Although the MCF-10 cell line provides a useful selectivity model, it may not fully represent the varying sensitivities of different normal cell types within a multicellular organism. The SI value indicates the ratio of toxicity in mammalian host cells to that in a tumoral cell. The data obtained in response to different concentrations of compounds were used to calculate the IC50 and corresponding SI values, as shown in Table 1.
(§2) The American Type Culture Collection (Rockville, MD, USA) supplied the following experimental cell lines: MCF-7, a human breast cancer cell line, and MCF-10A, a human epithelial breast cell line (ATCC N° CRL-10317). Both cell lines were grown in DMEM-F12 medium containing 10% FCS, 100 U/mL penicillin, 100 μg/mL streptomycin, and 1 mM glutamine. The cells were seeded at a concentration of 100 μL per well at a plating density of 3 × 10^3 cells/well and incubated for 24 h at 37 °C under 5% humidified CO2 to enable attachment. The cells were then treated with varying concentrations of synthesized compounds for […] under the same conditions. The compound stock solution was prepared in DMSO, and the final concentration of DMSO was kept at 0.1%. Control cultures were treated with only 1% ethanol.
(§3) Cells from the MCF-7 and MCF-10 lines were seeded into 96-well plates at a density of 1 × 10^4 per well. After 24 h, the compounds were added at increasing concentrations (500–100–20-4–0.8–0.16–0.032–0 µM), and the cells were incubated at 37 °C in a humidified 5% CO2/95% air mixture for 48 h. Following incubation, the cells were washed twice with PBS, and 100 μL of 0.5 mg/mL MTT solution was added to each well. After 2 h of incubation, the MTT solution was removed, and the formazan crystals were dissolved in 50 μL of DMSO per well. Absorbance was then measured at 570 nm using a microplate ELISA reader. IC50 values, determined from three independent experiments conducted in triplicate, were calculated using SigmaPlot® software (version 11.0). The selectivity index (SI) of each compound in each cell line was determined by calculating the ratio of the IC50 values for MCF-10 and cancer cell lines. Compounds were considered selective if SI values were equal to or greater than 3 [46].
(Formazan colour is commonly taken as a measure of viable cells.)

For test [2], the system named is MCF-7 cells. As to the kind of experiment: MTT cytotoxicity assay on MCF-7 cells. In kind it is cell-based, human. The settings on record: for IC50: Homo sapiens, MCF7, MTT, 48 h incubation, IC50 ± SD, three experiments in triplicate; for Selectivity Index (SI): SI = IC50 on MCF-10 cells/IC50 on MCF-7 cells. On the procedure: as §1, §2, §3

As to `COc1ccc([C@@H](O)[C@H]2C(C)=CCC3C(C)(C)CCC[C@@]32C)c(OC)c1` (stereo partly drawn) [Compound 10a, (1S)-(2,4-Dimethoxyphenyl)((1S,8aS)-2,5,5,8a-tetramethyl-1,4,4a,5,6,7,8,8a-octahydronaphthalen-1-yl) methanol], the results for the IC50 in test [1] and in test [2] were 53.2 ± 10 µM and 74.2 ± 7 µM, respectively. Also, the “Selectivity Index (SI)” value in test [2] stood at 0.7.

On to `COc1ccc(OC)c([C@@H](O)[C@H]2C(C)=CCC3C(C)(C)CCC[C@@]32C)c1` (stereo partly drawn) [Compound 10b, (1S)-(2,5-Dimethoxyphenyl)((1S,8aS)-2,5,5,8a-tetramethyl-1,4,4a,5,6,7,8,8a-octahydronaphthalen-1-yl)methanol], for which the half-maximal inhibitory concentration (IC50) (as a rule, the concentration at which inhibition is half-maximal) in test [1] is 10.1 ± 3 µM; in test [2], 131 ± 26.6 µM. In test [2], the “Selectivity Index (SI)” value was 0.1.

For `COc1cc(OC)cc([C@@H](O)[C@H]2C(C)=CCC3C(C)(C)CCC[C@@]32C)c1` (stereo partly drawn) [Compound 10d, (1S)-(3,5-Dimethoxyphenyl)((1S,8aS)-2,5,5,8a-tetramethyl-1,4,4a,5,6,7,8,8a-octahydronaphthalen-1-yl)methanol], the half-maximal inhibitory concentration (IC50) in test [1] is 12.3 ± 3.1 µM; in test [2] it was 126 ± 11.5 µM. The “Selectivity Index (SI)” value in test [2] amounted to 0.1.

In test [1], `COc1ccc(C[C@H]2C(C)=CCC3C(C)(C)CCC[C@@]32C)c(OC)c1` (stereo partly drawn) [Compound 11a, (4aS,5S)-5-(2,4-Dimethoxybenzyl)-1,1,4a,6-tetramethyl-1,2,3,4,4a,5,8,8a-octahydronaphthalene] displayed an IC50 of 76.7 ± 3 µM. Besides, in test [2], half-maximal inhibition (IC50) required 75.2 ± 11.3 µM and the “Selectivity Index (SI)” value was 1.0.

As for `COc1ccc(OC)c(C[C@H]2C(C)=CCC3C(C)(C)CCC[C@@]32C)c1` (stereo partly drawn) [Compound 11b, (4aS,5S)-5-(2,5-Dimethoxybenzyl)-1,1,4a,6-tetramethyl-1,2,3,4,4a,5,8,8a-octahydronaphthalene], the IC50 in test [1] is 54.4 ± 3.5 µM; in test [2] it was 133 ± 14.9 µM. Further, in test [2], the “Selectivity Index (SI)” value was determined as 0.4.

As to `COc1ccc(C(=O)[C@H]2C(C)=CCC3C(C)(C)CCC[C@@]32C)c(OC)c1` (stereo partly drawn) [Compound 12a, (2,4-Dimethoxyphenyl)((1S,8aS)-2,5,5,8a-tetramethyl-1,4,4a,5,6,7,8,8a-octahydronaphthalen-1-yl)methanone], the IC50 in test [1] amounted to 45.4 ± 4.8 µM. Besides, in test [2], the IC50 amounted to 56.2 ± 7.3 µM and the “Selectivity Index (SI)” value came to 0.8.

In test [1], `COc1ccc(OC)c(C(=O)[C@H]2C(C)=CCC3C(C)(C)CCC[C@@]32C)c1` (stereo partly drawn) [Compound 12b, (2,5-Dimethoxyphenyl)((1S,8aS)-2,5,5,8a-tetramethyl-1,4,4a,5,6,7,8,8a-octahydronaphthalen-1-yl)methanone] returned a 50% inhibitory concentration (IC50) of 72.7 ± 4.3 µM. Besides, in test [2], the IC50 is 88.1 ± 19.9 µM and the “Selectivity Index (SI)” value was determined as 0.8.

For `COc1cc(OC)cc(C(=O)[C@H]2C(C)=CCC3C(C)(C)CCC[C@@]32C)c1` (stereo partly drawn) [Compound 12d, (3,5-Dimethoxyphenyl)((1S,8aS)-2,5,5,8a-tetramethyl-1,4,4a,5,6,7,8,8a-octahydronaphthalen-1-yl)methanone], the figures for the IC50 in test [1] and in test [2] were 107 ± 15.4 µM and 112 ± 25.4 µM, respectively. Besides, in test [2], the “Selectivity Index (SI)” value was 1.0.

As to `COc1ccc(/C=C2\C(C)=CCC3C(C)(C)CCC[C@]23C)c(OC)c1` (stereo partly drawn) [Compound 13a, (4aS)-5-((E)-2,4-Dimethoxybenzylidene)-1,1,4a,6-tetramethyl-1,2,3,4,4a,5,8,8a-octahydronaphthalene], the IC50 in test [1] amounted to 70.9 ± 15.1 µM; in test [2] it was 48.9 ± 8 µM. Moreover, the “Selectivity Index (SI)” value in test [2] is recorded as 1.4.

As for `COc1cc(OC)c2c(c1)[C@]1(C)CCC3C(C)(C)CCC[C@]3(C)C1=C2` (stereo partly drawn) [Compound 14a, (6aR,11bS)-8,10-Dimethoxy-4,4,6a,11b-tetramethyl-2,3,4,4a,5,6,6a,11b-octahydro-1H-benzo[a]fluorene], the half-inhibitory concentration (IC50) worked out at 52.4 ± 3.5 µM in test [1] and 8.4 ± 1.8 µM in test [2]. The “Selectivity Index (SI)” value in test [2] is recorded as 6.3.
